{"source": "patent US20210002231A1", "about": "(Centre National de la Recherche Scientifique, priority 2018, published 2021)", "key": {"C57BL/6N mice [1]": {"system": "C57BL/6N mice", "assay": "Respiratory depression by whole body plethysmography", "format": "in vivo", "conditions": "acute sc.; KGOP01 1.8, KGFF03 1.2, KGFF09 7.4 μmol/kg; 100 min", "experimental": "Ventilatory parameters were recorded in conscious C57BL/6N mice by whole body barometric plethysmography (Emka Technologies, Paris, France). Mice were acclimatized with the plethysmograph chamber for 30 min until a stable baseline was obtained. Then, the animal was gently removed from the chamber for sc. injection of the tested drug at TO and replaced in the chamber for the remaining measurements. Respiratory frequency (f) was recorded for 100 min and used as the index of respiratory depression."}, "human MOPr [2]": {"target": "T1, human MOPr (Homo sapiens, UniProt P35372)", "T1 sequence (P35372 whole entry)": "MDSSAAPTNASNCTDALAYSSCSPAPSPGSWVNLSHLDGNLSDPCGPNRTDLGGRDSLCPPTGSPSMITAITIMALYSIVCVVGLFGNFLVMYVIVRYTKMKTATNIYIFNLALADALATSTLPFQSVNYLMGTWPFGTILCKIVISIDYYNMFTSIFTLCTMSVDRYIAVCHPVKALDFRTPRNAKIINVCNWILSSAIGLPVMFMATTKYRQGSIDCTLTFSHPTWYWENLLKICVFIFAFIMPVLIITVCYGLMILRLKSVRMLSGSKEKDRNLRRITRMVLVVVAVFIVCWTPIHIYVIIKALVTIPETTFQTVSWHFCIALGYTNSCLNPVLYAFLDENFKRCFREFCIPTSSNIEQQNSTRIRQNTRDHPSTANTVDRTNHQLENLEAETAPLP", "assay": "cell-based", "format": "cell-based", "set-up": "expressed in transfected cells; HEK293-Glo20F cells (cAMP)", "conditions": "for MOPr-induced G protein activation: in words; for Emax: read-out: MOPr (cAMP) Emax", "method_in_brief": "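GTPγS binding used membranes of CHO cells expressing NPFF1R or NPFF2R, stimulated by RF-amide peptides or test compounds. cAMP was measured in HEK293 cells stably carrying Glosensor-20F, with or without stable expression of an opioid receptor or NPFF1R, in the presence of 1 mM D-luciferin.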"}, "GPR10": {"target": "T2, GPR10 (Homo sapiens, UniProt P49683)", "T2 construct": "expressed in transfected cells; host or cells: CHO cells (gift from M. Parmentier, IRIBHM, Brussels), membranes", "T2 sequence (P49683 1-370)": "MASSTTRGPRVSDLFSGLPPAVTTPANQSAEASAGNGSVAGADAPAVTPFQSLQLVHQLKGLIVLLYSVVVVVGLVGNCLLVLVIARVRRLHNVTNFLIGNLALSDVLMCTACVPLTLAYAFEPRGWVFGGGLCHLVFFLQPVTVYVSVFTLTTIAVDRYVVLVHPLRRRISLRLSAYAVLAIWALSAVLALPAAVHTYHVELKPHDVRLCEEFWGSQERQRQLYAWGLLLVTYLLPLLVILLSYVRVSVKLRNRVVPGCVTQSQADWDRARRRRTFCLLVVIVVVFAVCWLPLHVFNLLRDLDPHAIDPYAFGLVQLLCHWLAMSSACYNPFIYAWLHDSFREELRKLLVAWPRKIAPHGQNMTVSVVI", "assay": "Radioligand competition binding with [3H]-PrRP-20"}, "C57BL/6N mice [3]": {"system": "C57BL/6N mice", "assay": "Hyperalgesia and analgesic tolerance upon chronic sc. treatment, tail immersion test", "format": "in vivo", "conditions": "for antinociceptive effect on day 1: equianalgesic sc. doses, 25 s cut-off; for basal thermal nociceptive threshold (development of hyperalgesia): chronic daily sc., compared with saline", "experimental": "Animal experiments were performed on adult male C57BL/6N male mice (25-30 g weight; Janvier labs, France). Animals were housed in groups of three to five per cage and kept under a 12 h/12 h light/dark cycle at 21±1° C. with ad libitum access to food and water. Experiments were performed during the light-on phase of the cycle. Mice were habituated to the testing room and equipment before starting behavioral experiments. Control and treated group assignment as well as pain response measurements were performed in a blinded manner. Every animal was used only once. 1.11. Drug administration All drugs were dissolved in physiological saline (0.9%) and administered subcutaneously (sc.) at 10 mL/kg (volume/body weight). […] Assessment of thermal nociception The nociceptive sensitivity to thermal stimulation was determined in mice using the warm-water tail immersion tests as previously described [12; 49]. In the tail immersion test, C57BN/6N mice were restrained in a grid pocket and their tail was immersed in a thermostated water bath. The latency (in sec) for tail withdrawal from hot water (47.5±0.5° C.) was taken as a measure of the nociceptive response. In the absence of any nociceptive reaction, a cut-off value of 25 sec was set to avoid tissue damage. Experiments for chronic drug effects were designed according to a protocol enabling the evaluation of time-course of opioid-induced hyperalgesia and development of analgesic tolerance using the tail immersion test. […] For analgesic tolerance evaluation, nociceptive latencies were measured on day 1 and 8 according to the acute effect protocol. For the assessment of hyperalgesia, basal nociceptive latencies were measured every day, 30 min before drug or saline injection. Responses are expressed as latency times (in sec) of tail withdrawal from the hot water."}, "human MOPr [4]": {"target": "T1, human MOPr", "assay": "BRET1 β-arrestin-2 recruitment assay;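 as to Emax: Emax relative to maximal DAMGO-induced BRET as 100%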;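 as to MOPr (β-arrestin-2) Emax: Emax relative to maximal DAMGO-induced BRET as 100%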", "format": "cell-based", "set-up": "expressed in transfected cells; host or cells: HEK293 cells stably expressing eYFP-β-arrestin-2, transiently transfected with the Rluc8-MOP plasmid", "conditions": "for Emax: read-out: MOPr (β-arrestin-2) Emax", "method_in_brief": "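HEK293 cells stably expressing eYFP-β-arrestin-2 were transfected two days before with Rluc8-tagged MOP receptor. BRET was read at 37 °C with 5 μM coelenterazine H, 5 min after agonist addition.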"}, "C57BL/6N mice [5]": {"system": "C57BL/6N mice", "assay": "CFA-induced inflammatory pain model", "format": "in vivo", "conditions": "for CFA-induced thermal hypersensitivity (basal threshold): daily sc., measured before injection", "experimental": "Tail inflammation in C57BL/6N mice was induced by injecting subcutaneously 20 μl of a Complete Freund's Adjuvant (CFA) solution or saline (control mice) 3 cm from the tip of the tail. Twenty-four hours after CFA injection (day 1), inflammation was confirmed by measuring thermal and mechanical hyperalgesia. Mice were then treated sc. daily for 7 days (from day 1 to day 7) with the test compounds or saline (control). Nociceptive threshold to heat stimulation was measured by tail immersion test (47.5±0.5° C.) and tail pressure test each hour for 5 h after the first drug administration in order to determine the peak of the anti-hyperalgesic response. During the following days, basal nociceptive thresholds were evaluated before injection and 2 h after drug injection. Antinociceptive response was calculated as percent of Maximum Possible Effect (% MPE) according to the formula=[(test latency−CFA/saline mice latency)/(cut-off time−CFA/saline mice latency)]×100. In order to limit behavioral sensitization, thermal nociception was evaluated on days 1-2-4-6 and mechanical nociception on days 1-3-5-7."}, "[6]": {"conditions": "Table 3a, HEK293-Glo20F-hMOPr cells, read-out: MOPr (cAMP) EC50"}, "[7]": {"conditions": "Table 3a, read-out: MOPr (β-arrestin-2) EC50"}, "[8]": {"conditions": "[3H]-PrRP-20, read-out: Ki ± SEM GPR10"}}, "note": "Read-outs that look alike come from different tables or passages of the source. Residues, ends and D or L forms follow the SMILES beside them.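 For MOPr (cAMP) Emax in this document: Emax relative to DAMGO as 100%.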"}
{"compound": "Cc1cc(O)cc(C)c1C[C@H](N)C(=O)N[C@H](CCCNC(=N)N)C(=O)N[C@H]1Cc2ccccc2CN(CCC(=O)N[C@@H](CCCNC(=N)N)C(=O)N[C@@H](Cc2ccccc2)C(N)=O)C1=O", "note": "[KGFF03, H-Dmt-D-Arg-Aba-β-Ala-Arg-Phe-NH2] (HELM PEPTIDE1{[Cc1cc(O)cc(C)c1C[C@H](N)C(=O)[*:2]].[dR].[O=C1[C@@H](N[*:1])Cc2ccccc2CN1CCC(=O)[*:2]].R.F.[am]}$$$$V2.0)", "values": [{"measurement": "respiratory depression (respiratory frequency) compared to saline", "setting": "C57BL/6N mice [1]", "result": "did not"}, {"measurement": "EC50", "setting": "human MOPr [2]; [6]", "result": "12 ± 2", "unit": "nM"}, {"measurement": "MOPr-induced G protein activation", "setting": "human MOPr [2]", "result": "highly potent and fully efficacious"}, {"measurement": "Emax", "setting": "human MOPr [2]", "result": "92 ± 1", "unit": "%"}, {"measurement": "Ki", "setting": "GPR10", "result": "> 10000", "unit": "nM"}, {"measurement": "antinociceptive effect on day 1", "setting": "C57BL/6N mice [3]", "result": "full antinociception"}, {"measurement": "EC50", "setting": "human MOPr [4]; [7]", "result": "33.9 ± 8.8", "unit": "nM"}, {"measurement": "β-arrestin-2 recruitment", "setting": "human MOPr [4]; in words", "result": "partial agonism"}, {"measurement": "Emax", "setting": "human MOPr [4]", "result": "41 ± 11", "unit": "%"}, {"measurement": "CFA-induced thermal hypersensitivity (basal threshold)", "setting": "C57BL/6N mice [5]", "result": "not the case"}]}
{"compound": "Cc1cc(O)cc(C)c1C[C@H](N)C(=O)N[C@H](CCCNC(=N)N)C(=O)N[C@H]1Cc2ccccc2CN(CCC(=O)N[C@@H](CCCN2CCC(Cc3ccccc3)CC2)C(=O)N[C@@H](Cc2ccccc2)C(N)=O)C1=O", "note": "[KGFF09, H-Dmt-D-Arg-Aba-β-Ala-Bpa-Phe-NH2]", "values": [{"measurement": "respiratory depression (respiratory frequency) compared to saline", "setting": "C57BL/6N mice [1]", "result": "did not"}, {"measurement": "EC50", "setting": "human MOPr [2]; Table 3B, read-out: MOPr (cAMP) EC50", "result": "18.2 ± 6.1", "unit": "nM"}, {"measurement": "EC50", "setting": "human MOPr [2]; [6]", "result": "18.2 ± 6.1", "unit": "nM"}, {"measurement": "MOPr-induced G protein activation", "setting": "human MOPr [2]", "result": "highly potent and fully efficacious"}, {"measurement": "Emax", "setting": "human MOPr [2]", "result": "85 ± 2", "unit": "%"}, {"measurement": "Ki", "setting": "GPR10; [8]", "result": "> 10000", "unit": "nM"}, {"measurement": "basal thermal nociceptive threshold (development of hyperalgesia)", "setting": "C57BL/6N mice [3]", "result": "absent"}, {"measurement": "decrease in antinociception efficacy (AUC) on day 8 compared to day 1", "setting": "C57BL/6N mice [3]; daily sc. d1-d8, KGOP01 1.8, KGFF03 1.2, KGFF09 7.4 μmol/kg/d", "result": "less than 25%"}, {"measurement": "antinociceptive effect on day 1", "setting": "C57BL/6N mice [3]", "result": "full antinociception"}, {"measurement": "EC50", "setting": "human MOPr [4]; [7]", "result": "56.4 ± 26.5", "unit": "nM"}, {"measurement": "β-arrestin-2 recruitment", "setting": "human MOPr [4]; in words", "result": "partial agonism"}, {"measurement": "Emax", "setting": "human MOPr [4]", "result": "42 ± 2", "unit": "%"}, {"measurement": "CFA-induced thermal hypersensitivity (basal threshold)", "setting": "C57BL/6N mice [5]", "result": "totally reversed after the third injection"}, {"measurement": "analgesic tolerance after 7 days of chronic administration", "setting": "C57BL/6N mice [5]; in words", "result": "significantly less tolerance"}]}
{"compound": "Cc1cc(O)cc(C)c1C[C@H](N)C(=O)N[C@H](CCCNC(=N)N)C(=O)N[C@H]1Cc2ccccc2CN(CCC(N)=O)C1=O", "note": "[KGOP01, reference compound]", "values": [{"measurement": "respiratory depression (respiratory frequency) compared to saline", "setting": "C57BL/6N mice [1]", "result": "significant respiratory depression"}, {"measurement": "EC50", "setting": "human MOPr [2]; MOPr (cAMP) EC50", "result": "0.204 ± 0.05", "unit": "nM"}, {"measurement": "Emax", "setting": "human MOPr [2]", "result": "89 ± 2", "unit": "%"}, {"measurement": "Ki", "setting": "GPR10; [8]", "result": "> 10000", "unit": "nM"}, {"measurement": "basal thermal nociceptive threshold (development of hyperalgesia)", "setting": "C57BL/6N mice [3]", "result": "significant and progressive decrease"}, {"measurement": "antinociceptive effect on day 1", "setting": "C57BL/6N mice [3]", "result": "full antinociception"}, {"measurement": "EC50", "setting": "human MOPr [4]", "result": "1.6 ± 0.1", "unit": "nM"}, {"measurement": "β-arrestin-2 recruitment", "setting": "human MOPr [4]", "result": "full response"}, {"measurement": "Emax", "setting": "human MOPr [4]", "result": "103 ± 9", "unit": "%"}, {"measurement": "CFA-induced thermal hypersensitivity (basal threshold)", "setting": "C57BL/6N mice [5]", "result": "not the case"}]}
